Test results reported in US5300672A (priority 1992, dated 1994).
≈ marks a conversion by molar mass, not a printed value. Read-outs that look alike come from different tables or passages of the source.

Assays:
[1] = test system: Puccinia recondita (f. sp. tritici Races PKB and PLD); experiment: whole plant or invertebrate; assay type: in vivo
[2] = test system: Erysiphe graminis (f. sp. tritici); experiment: whole plant or invertebrate; assay type: in vivo; details: Blumeria graminis; read-out: % Control WPM
[3] = test system: Phytophthora infestans; experiment: whole plant or invertebrate; assay type: in vivo; details: Phytophthora infestans, in Solanum lycopersicum, 96 h; for pest or weed control at 25 ppm: read-out: % Control TLB, application rate 25 ppm
[4] = test system: Pythium ultimum; experiment: Pythium ultimum in vitro Fungitoxicity Assay in liquid culture; assay type: cell-based, Pythium ultimum (ATCC 26083); details: Globisporangium ultimum; mycelial dry weight, 48 h at 25° C., shaking at 60 rpm; read-out: EC 50
Protocol: Selected compounds of Examples 1-120 were subjected also to the following in vitro fungitoxicity assay against Pythium ultimum in a liquid culture, with the results as indicated in Table 6.
Pythium ultimum Fungitoxicity Assay
A dilution series of the test compound was prepared in dimethylsulfoxide, and 0.1 ml of each dilution was added to 19.9 ml of a liquid asparagine-sucrose medium (D. C. Erwin and K. Katznelson (1971), Can. J. Microbiol. 7, 15) in 9 cm diameter petri dishes to give the desired final concentrations of test compound. Plates were inoculated with mycelial plugs, 7 mm diameter, taken from the growing edge of 48 h old cultures of Pythium ultimum, (ATCC 26083), grown on potato dextrose agar. Two replicate plates were used for each treatment. The increase in mycelial dry weight was determined after growth for 48 h at 25° C. with shaking at 60 rpm. EC50 values were calculated from dose response curves.

[5] = test system: Pellicularia filamentosa (f. sp. sasiki); experiment: whole plant or invertebrate; assay type: in vivo; details: 120 h; read-out: % Control RSB
[6] = test system: Pseudomonas fluorescens; experiment: Alternate Minimum Inhibitory Concentrations Test (Table 4), Ps.fl; assay type: cell-based; details: Pseudomonas fluorescens; Table 4 alternate test; 250 ppm to 0.8 ppm in TSB, 72 hours, 30° C.; read-out: MIC Ps.fl
Summary of the method: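 MIC taken as lowest concentration showing no growth after 72 h incubation at 30 °C in TSB. Twofold dilution series spanned 250 down to 0.8 ppm, wells inoculated with phosphate-buffer-diluted 24 h culture.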

[7] = test system: Piricularia oryzae; experiment: whole plant or invertebrate; assay type: in vivo; details: Pyricularia oryzae
[8] = test system: Pseudoperonospora cubensis; experiment: whole plant or invertebrate; assay type: in vivo; details: Pseudoperonospora cubensis, in Cucumis sativus, 168 h; read-out: % Control CDM
[9] = test system: Puccinia graminis (f. sp. tritici Race 15B-2); experiment: whole plant or invertebrate; assay type: in vivo; details: Puccinia graminis, 336 h, read-out: % Control WSR
[10] = Puccinia recondita, 240 h, read-out: % Control WLR
[11] = read-out: % Control TLB, application rate 100 ppm
[12] = read-out: % Control RB, application rate 200 ppm
[13] = read-out: % Control RB, application rate 100 ppm
[14] = read-out: % Control TLB, application rate 200 ppm

Row | Compound | pest or weed control at 100 ppm [1, 10] | pest or weed control at 100 ppm [2] | pest or weed control at 100 ppm [5] | MIC [6] | pest or weed control at 50 ppm [8] | pest or weed control at 200 ppm [9] | pest or weed control at 200 ppm [7, 12] | pest or weed control at 200 ppm [1, 10] | pest or weed control at 200 ppm [2] | pest or weed control at 200 ppm [5] | further results
1 | CCCCCCCCNC(=O)/C=C\SC(=O)c1ccc(Br)cn1 [Compound 53, N-octyl-cis-3-[(5-bromo-2-pyridine)carbonylthio]acrylamide] | 0% | 0% | 0% | > 250 µg/mL | – | – | – | – | – | – | pest or weed control at 100 ppm [3, 11]: 0%; EC50 [4]: 10.2 µg/mL (≈ 25.5 µM)
2 | CCCCCCCCNC(=O)/C=C\SC(=O)c1ccc(N=C=S)cc1 [Compound 48, N-octyl-cis-3-[(4-isothiocyanobenzoyl)thio]acrylamide] | – | – | – | > 250 µg/mL | – | – | – | – | – | – | pest or weed control at 100 ppm [3, 11]: 0%; EC50 [4]: 8.2 µg/mL (≈ 21.8 µM)
3 | CCCCCCCCNC(=O)/C=C\SC(=O)/C=C/c1ccccc1 [Compound 14, N-octyl-cis-3-[(trans-3-phenylprop-2-enoyl)thio]acrylamide] | 0% | 0% | 0% | > 250 µg/mL | 50% | 75% | – | – | – | – | pest or weed control at 100 ppm ([7]; read-out: % Control RB): 100%; pest or weed control at 100 ppm ([3]; read-out: % Control TLB): 90%
4 | CCCCCCCCNC(=O)/C=C\SCc1ccc(C(F)(F)F)cc1 [Compound 33, N-octyl-cis-3-[(4-(trifluoromethyl)benzyl)thio]acrylamide] | 0% | 85% | 0% | > 250 µg/mL | 50% | 75% | – | – | – | – | pest or weed control at 25 ppm ([7]; read-out: % Control RB, application rate 25 ppm): 80%; pest or weed control at 100 ppm ([3]; read-out: % Control TLB): 80%
5 | C/C=C/C=C/C(=O)S/C=C\C(=O)NCCCCCCCC [Compound 59, N-octyl-cis-3-[(trans,trans-2,4-hexadienoyl)thio]acrylamide] | – | – | – | > 250 µg/mL | 70% | 50% | 0% | 0% | 0% | – | pest or weed control at 200 ppm ([3]; read-out: % Control TLB): 80%; pest or weed control at 50 ppm [5]: 50%
6 | CCCCCCCCNC(=O)/C=C\SC(=O)c1cccnc1Cl [Compound 6, N-octyl-cis-3-[3-(2-chloropyridine)carbonylthio]acrylamide] | 0% | 0% | 0% | > 250 µg/mL | 85% | 90% | – | – | – | – | pest or weed control at 100 ppm [7, 13]: 50%; pest or weed control at 100 ppm ([3]; read-out: % Control TLB): 90%
7 | CCCCCCCCNC(=O)/C=C\SC(=O)c1cccnc1 [Compound 55, N-octyl-cis-3-[(3-pyridine)carbonylthio]acrylamide] | 0% | 50% | 0% | > 250 µg/mL | – | 90% | 0% | – | – | – | pest or weed control at 12 ppm [8]: 70%; pest or weed control at 100 ppm [3, 11]: 95%
8 | CCCCCCCCNC(=O)/C=C\SCn1cncn1 [Compound 7, N-octyl-cis-3-[1-(1,2,4-triazoyl)methylthio]acrylamide] | 0% | 0% | – | > 250 µg/mL | – | – | – | – | – | – | pest or weed control at 100 ppm [3, 11]: 0%; EC50 [4]: 50 µg/mL (≈ 169 µM); pest or weed control at 6 ppm [5]: 50%
9 | CCCCCC#CC(=O)S/C=C\C(=O)NCCCCCCCC [Compound 86, N-octyl-cis-3-[(2-octynoyl)thio]acrylamide] | – | – | – | > 250 µg/mL | – | – | 0% | 50% | 0% | 0% | pest or weed control at 200 ppm [8]: 85%; pest or weed control at 200 ppm ([3]; read-out: % Control TLB): 90%; pest or weed control at 100 ppm [9]: 0%
10 | CCCCCCCCNC(=O)/C=C\SC(=O)CC1C=CCC1 (centres unmarked) [Compound 93] | – | – | – | > 250 µg/mL | – | – | – | 50% | 75% | 0% | pest or weed control at 50 ppm ([7]; read-out: % Control RB, application rate 50 ppm): 90%; pest or weed control at 200 ppm [8]: 99%; pest or weed control at 200 ppm ([3]; read-out: % Control TLB): 90%; pest or weed control at 100 ppm [9]: 50%
11 | CCCCCCCCNC(=O)/C=C\SC(=O)c1cc(Cl)sc1Cl [Compound 18, N-octyl-cis-3-[(2,5-dichloro-3-thiophene)carbonylthio]acrylamide] | 0% | 0% | 0% | > 250 µg/mL | 70% | 50% | – | – | – | – | pest or weed control at 100 ppm [7, 13]: 50%; pest or weed control at 25 ppm [3]: 100%
12 | CCCCCCCCNC(=O)/C=C\SC(=O)c1ccc(OC)cc1 [Compound 16, N-octyl-cis-3-[(4-methoxybenzoyl)thio]acrylamide] | 75% | 0% | 0% | > 250 µg/mL | – | – | – | – | – | – | pest or weed control at 25 ppm ([7]; read-out: % Control RB): 100%; pest or weed control at 12 ppm [8]: 50%; pest or weed control at 100 ppm ([3]; read-out: % Control TLB): 90%; pest or weed control at 100 ppm [9]: 75%
13 | CCCCCCCCNC(=O)/C=C\SC(=O)COC [Compound 87, N-octyl-cis-3-(methoxyacetylthio)acrylamide] | – | – | – | > 250 µg/mL | – | – | – | 80% | – | 0% | pest or weed control at 200 ppm ([7]; read-out: % Control RB): 95%; pest or weed control at 200 ppm [8]: 100%; pest or weed control at 12 ppm [2]: 50%; pest or weed control at 200 ppm ([3]; read-out: % Control TLB): 90%; pest or weed control at 10 ppm [9]: 50%
14 | CCCCCCCCNC(=O)/C=C\SC(=O)CCc1ccccc1 [Compound 69, N-octyl-cis-3-[(3-phenylpropanoyl)thio]acrylamide] | – | – | – | > 250 µg/mL | 85% | 75% | 80% | – | 0% | 0% | % Control WLR ([1]; in vivo): 0 % Control; pest or weed control at 200 ppm [3, 14]: 100%
15 | CCCCCCCCNC(=O)/C=C\SC(=O)/C=C/c1ccc([N+](=O)[O-])cc1 [Compound 96, N-octyl-cis-3-[(trans-3-(4-nitrophenyl)propenoyl)thio]acrylamide] | – | – | – | > 250 µg/mL | – | – | – | – | 75% | 50% | pest or weed control at 200 ppm ([7]; read-out: % Control RB): 95%; pest or weed control at 200 ppm [8]: 95%; pest or weed control at 50 ppm [1, 10]: 0%; pest or weed control at 200 ppm [3, 14]: 0%; pest or weed control at 100 ppm [9]: 0%
16 | CCCCCCCCNC(=O)/C=C\SC(=O)/C=C/C(=O)OCC [Compound 57, N-octyl-cis-3-[(trans-3-ethoxycarbonyl-2-propenoyl)thio]acrylamide] | – | – | – | > 250 µg/mL | 70% | 90% | 75% | 25% | – | 0% | pest or weed control at 12 ppm [2]: 50%; pest or weed control at 200 ppm ([3]; read-out: % Control TLB): 90%
17 | CCCCCCCCNC(=O)/C=C\SC(=O)CCCc1ccccc1 [Compound 80, N-octyl-cis-3-[(4-phenylbutanoyl)thio]acrylamide] | – | – | – | > 250 µg/mL | 85% | 75% | 50% | 0% | 0% | 50% | pest or weed control at 200 ppm [3, 14]: 100%
18 | CCCCCCCCNC(=O)/C=C\SC(=O)COc1ccccc1 [Compound 26, N-octyl-cis-3-(phenoxyacetylthio)acrylamide] | 0% | 0% | 0% | > 250 µg/mL | 85% | – | – | – | – | – | pest or weed control at 100 ppm [7, 13]: 80%; pest or weed control at 100 ppm ([3]; read-out: % Control TLB): 90%; pest or weed control at 100 ppm [9]: 90%
19 | CCCCCCCCNC(=O)/C=C\SC(=O)c1cccc(CCl)c1 [Compound 22, N-octyl-cis-3-[(3-(chloromethyl)benzoyl)thio]acrylamide] | 0% | 0% | 0% | > 250 µg/mL | 99% | 75% | – | – | – | – | pest or weed control at 100 ppm [7, 13]: 0%; pest or weed control at 25 ppm [3]: 95%
